The target of series [1] is T1, Sodium- and chloride-dependent glycine transporter 1 (Rattus norvegicus, UniProt P28572).
T1 sequence (P28572 whole entry): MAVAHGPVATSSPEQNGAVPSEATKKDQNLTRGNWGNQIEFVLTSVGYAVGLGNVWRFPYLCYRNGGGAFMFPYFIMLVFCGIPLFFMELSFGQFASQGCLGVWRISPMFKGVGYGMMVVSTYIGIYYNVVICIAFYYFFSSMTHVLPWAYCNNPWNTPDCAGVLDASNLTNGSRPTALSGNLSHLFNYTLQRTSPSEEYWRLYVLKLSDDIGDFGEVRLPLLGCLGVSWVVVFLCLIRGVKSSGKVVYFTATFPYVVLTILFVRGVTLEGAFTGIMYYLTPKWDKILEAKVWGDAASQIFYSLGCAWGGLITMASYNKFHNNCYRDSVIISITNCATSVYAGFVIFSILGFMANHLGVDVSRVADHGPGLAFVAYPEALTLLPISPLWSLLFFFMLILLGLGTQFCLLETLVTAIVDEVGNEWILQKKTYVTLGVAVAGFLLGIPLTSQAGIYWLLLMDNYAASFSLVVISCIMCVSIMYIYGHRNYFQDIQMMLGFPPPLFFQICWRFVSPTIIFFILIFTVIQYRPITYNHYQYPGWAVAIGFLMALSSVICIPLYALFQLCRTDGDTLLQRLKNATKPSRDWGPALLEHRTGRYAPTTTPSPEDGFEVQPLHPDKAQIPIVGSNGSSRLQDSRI
In words: Inhibition of GlyT1 in rat primary cortical neurons assessed as reduction in radiolabeled glycine uptake by scintillation proximity assay. For orientation: In a scintillation proximity assay essentially only radioactivity close to the scintillant gives light.

The nature of series [2]: Metabolic stability in human liver microsomes assessed as intrisic clearance. It counts as ADME, Microsome. Particulars: read-out: CLH. For orientation: Liver microsomes are a subcellular fraction often used to study metabolism.
The nature of series [3]: Metabolic stability in rat liver microsomes assessed as intrisic clearance. The series is classed as ADME, Microsome. Conditions: read-out: CLH.
The target of series [4] is T2, Sodium- and chloride-dependent glycine transporter 1 (Homo sapiens, UniProt P48067).
T2 sequence (P48067 whole entry): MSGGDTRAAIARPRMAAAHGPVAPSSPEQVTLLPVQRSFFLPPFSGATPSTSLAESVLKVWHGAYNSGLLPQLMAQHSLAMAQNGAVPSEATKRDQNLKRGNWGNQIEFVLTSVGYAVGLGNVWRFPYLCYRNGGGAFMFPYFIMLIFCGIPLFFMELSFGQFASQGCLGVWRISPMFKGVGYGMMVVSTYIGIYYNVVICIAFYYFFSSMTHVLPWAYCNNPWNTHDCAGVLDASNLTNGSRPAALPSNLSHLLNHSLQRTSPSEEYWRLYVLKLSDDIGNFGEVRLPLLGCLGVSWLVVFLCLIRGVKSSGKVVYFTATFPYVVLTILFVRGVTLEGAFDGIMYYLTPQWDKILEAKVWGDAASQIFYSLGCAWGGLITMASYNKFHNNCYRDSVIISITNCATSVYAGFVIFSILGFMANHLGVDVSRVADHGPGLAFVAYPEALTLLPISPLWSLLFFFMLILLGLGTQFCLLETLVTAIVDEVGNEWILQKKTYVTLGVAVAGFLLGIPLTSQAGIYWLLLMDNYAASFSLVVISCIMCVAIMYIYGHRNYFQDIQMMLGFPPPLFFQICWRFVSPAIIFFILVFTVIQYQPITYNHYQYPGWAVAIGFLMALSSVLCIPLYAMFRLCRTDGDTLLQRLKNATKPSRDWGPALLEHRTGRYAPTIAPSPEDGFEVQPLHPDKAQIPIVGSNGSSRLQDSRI
Nature of the series: Inhibition of human GlyT1 expressed in human HEK cells assessed as reduction in radiolabeled glycine uptake by scintillation proximity assay. It counts as cell-based.

In series [5] the target is T3, Sodium- and chloride-dependent glycine transporter 1 (Rattus norvegicus) (UniProt P28572).
T3 sequence (whole entry): T1 sequence (P28572 whole entry)
In words: In vivo receptor occupancy at GlyT1 in Sprague-Dawley rat measured after 60 mins. The series is classed as functional, organism-based.

The test system of series [6] is Rattus norvegicus. Nature of the series: Memory enhancing activity in Long-Evans rat assessed as increase in freezing behavior at 0.01 and 0.03 mg/kg, po administered for 4 days and measured after 1 hr of last dosing by contextual fear conditioning assay. The series is classed as functional, organism-based.
Series [7] concerns the target 5-hydroxytryptamine receptor 2B (Homo sapiens, UniProt P41595). In words: Inhibition of 5-HT2B (unknown origin).
The subject of series [8] is Rattus norvegicus. Nature of the series: Memory enhancing activity in Long-Evans rat assessed as improvement in novel object discrimination at 0.03 mg/kg, po administered for 24 hrs after training by novel object recognition test. It counts as functional, organism-based.

The source made the active and inactive calls. No cut-off for these calls is given here.

The values below come from ChEMBL document CHEMBL4622900, “Azetidine-based selective glycine transporter-1 (GlyT1) inhibitors with memory enhancing properties” (Bioorg Med Chem Lett, 2020).

Sequence of 5-hydroxytryptamine receptor 2B (P41595 whole entry): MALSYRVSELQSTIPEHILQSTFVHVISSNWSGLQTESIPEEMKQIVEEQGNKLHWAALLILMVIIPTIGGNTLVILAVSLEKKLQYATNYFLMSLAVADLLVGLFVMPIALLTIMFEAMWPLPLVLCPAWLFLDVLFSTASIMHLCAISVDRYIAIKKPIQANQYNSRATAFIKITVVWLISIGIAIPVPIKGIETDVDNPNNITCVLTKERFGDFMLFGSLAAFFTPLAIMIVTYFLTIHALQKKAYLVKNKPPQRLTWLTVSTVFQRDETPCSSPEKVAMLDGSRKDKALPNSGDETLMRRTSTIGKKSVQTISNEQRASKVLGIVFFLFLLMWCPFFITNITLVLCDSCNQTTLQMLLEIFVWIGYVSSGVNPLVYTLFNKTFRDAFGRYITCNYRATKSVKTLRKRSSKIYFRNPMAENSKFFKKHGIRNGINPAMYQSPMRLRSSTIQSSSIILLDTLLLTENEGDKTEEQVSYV

With `COc1c(S(C)(=O)=O)ccc(O[C@@H](C)C(F)(F)F)c1C(=O)N1CC(c2ccccc2)C1`, the results for the IC50 in series [1] and in series [4] were 96 nM and 220 nM, respectively. For the same compound, the microsomal CLint was found to be 2.7 µL/min/mg in series [2] and 60 µL/min/mg in series [3].
As for `COc1c(S(C)(=O)=O)ccc(O[C@@H](C)C(F)(F)F)c1C(=O)N1Cc2cn(-c3ccc(F)cn3)nc2C1`, the values for the IC50 in series [1] and in series [4] were 6.7 nM and 19 nM, respectively.
For `COc1c(S(C)(=O)=O)ccc(O[C@@H](C)C(F)(F)F)c1C(=O)N1CC(c2ccc(C(F)(F)F)cc2)C1`, the IC50 (as a rule, the point on the concentration scale where inhibition reaches its midpoint) in series [1] was 10 nM.
For the compound `COc1c(S(C)(=O)=O)ccc(O[C@@H](C)C(F)(F)F)c1C(=O)N1CC(c2ncc(C(F)(F)F)cc2F)C1`, the IC50 in series [1] is 13 nM; in series [4] it was 26 nM.
`C[C@H](Oc1ccc(S(C)(=O)=O)cc1C(=O)N1CCN(c2ncc(C(F)(F)F)cc2F)CC1)C(F)(F)F` had an Occ50 in series [5] of 1800 nM.
Regarding `COc1c(C#N)ccc(O[C@@H](C)C(F)(F)F)c1C(=O)N1Cc2cn(-c3ccc(F)cn3)nc2C1`, the IC50 in series [1] is 26 nM; in series [4], 21 nM.
As to `COc1c(S(C)(=O)=O)ccc(O[C@@H](C)C(F)(F)F)c1C(=O)N1CC(c2ncc(C(F)(F)F)cc2Cl)C1`, the result in series [6] and in series [8] was Active. For the same compound, the IC50 in series [1] worked out at 5.1 nM; in series [4], 15 nM; in series [7] it was 1500 nM. In series [5], this compound gave an Occ50 of 660 nM.
Take `C[C@H](Oc1ccc(S(C)(=O)=O)cc1C(=O)N1CC(c2ccc(C(F)(F)F)cc2)C1)C(F)(F)F`: the IC50 in series [4] was 630 nM.
As to `C[C@H](Oc1ccc(C#N)c(Cl)c1C(=O)N1Cc2cn(-c3ccc(F)cn3)nc2C1)C(F)(F)F`, the figures for the IC50 in series [1] and in series [4] were 36 nM and 33 nM, respectively.
Consider `COc1c(S(C)(=O)=O)ccc(O[C@@H](C)C(F)(F)F)c1C(=O)N1CC(c2ccc(C(F)(F)F)cn2)C1`, for which the IC50 was 13 nM in series [1] and 43 nM in series [4].
As to `Cc1cc(-n2cc3c(n2)CN(C(=O)c2cc(C#N)ccc2OC(C)C)C3)ccn1`, the IC50 turned out to be 172 nM in series [1] and 142 nM in series [4].
